In brackets after ≈: the same amount, converted by molar mass. Marks after values point to notes of the source that are not given here.
Key:
[1] = test system: Mycoplasma gallisepticum "R"; test: Minimum inhibitory concentration assay for Mycoplasma gallisepticum (microdilution, Table VII); settings: microdilution; "R" strain
Treponema hyodysenteriae = test: Minimum inhibitory concentration by microdilution (Table VII); format: cell-based
Clostridium difficile = test: In vitro antibacterial activity, standard agar dilution method (Table II); format: cell-based; settings: strain ATCC 17858
Pasteurella haemolytica = test: Minimum inhibitory concentration by agar dilution (Table VI); format: cell-based; settings: 3 strains tested
Pasteurella multocida = test: as above; format: cell-based; settings: 6 strains tested
Pseudomonas aeruginosa = test: In vitro antibacterial activity, standard agar dilution method (Table II); format: cell-based; settings: strain 12-4-4
Morganella morganii = test: as above; format: cell-based; settings: strain VGH-84-71
Staphylococcus aureus [2] = test: Minimum inhibitory concentration by agar dilution (Table VI); format: cell-based; settings: 7 strains tested
Bacteroides fragilis = test: In vitro antibacterial activity, standard agar dilution method (Table II); format: cell-based; settings: strain NYC 77-1
Streptococcus agalactiae = test: Minimum inhibitory concentration by agar dilution (Table VI); format: cell-based; settings: 4 strains tested
Streptococcus pneumoniae = test: In vitro antibacterial activity, standard agar dilution method (Table II); format: cell-based
[3] = test system: Streptococcus sp. (β-hemolytic); test: as above; format: cell-based
Salmonella choleraesuis = test: Minimum inhibitory concentration by agar dilution (Table VI); format: cell-based; settings: 2 strains tested
Streptococcus uberis = test: as above; format: cell-based; settings: 1 strain tested
Serratia marcescens = test: In vitro antibacterial activity, standard agar dilution method (Table II); format: cell-based; settings: strain K-84-18
[4] = Weight gain and feed efficiency of broiler chicks (Example 6, Table IX); format: in vivo, Peterson X Arbor Acres chicks; settings: for Wg Gains And Feed Efficiency % Improvement Over Controls FEED/GAIN: control 1.41
[5] = test system: Bordetella bronchiseptica; test: Minimum inhibitory concentration by agar dilution (Table VI); format: cell-based; settings: 4 strains tested
Escherichia coli [6] = test: In vitro antibacterial activity, standard agar dilution method (Table II); format: cell-based; settings: strain 311
[7] = test system: Streptococcus pyogenes C203; test: In vivo antibacterial activity in infected mice (Table III); settings: S. pyogenes C203, 30 minutes before infection
Streptococcus pyogenes = test: Minimum inhibitory concentration by agar dilution (Table VI); format: cell-based; settings: 2 strains tested
[8] = test system: Staphylococcus aureus Smith; test: In vivo antibacterial activity in infected mice (Table III); settings: S. aureus Smith, 30 minutes before infection
Escherichia coli [9] = test: Minimum inhibitory concentration by agar dilution (Table VI); format: cell-based; settings: 2 strains tested
Clostridium perfringens = format: cell-based; settings: strain ATCC 13124
Staphylococcus aureus [10] = test: In vitro antibacterial activity, standard agar dilution method (Table II); format: cell-based
Babesia bovis = test: Anti-Babesia bovis activity, 3H hypoxanthine incorporation in in vitro culture; settings: parasitemia of 4%
Peptococcus magnus = test: In vitro antibacterial activity, standard agar dilution method (Table II); format: cell-based
Enterobacter cloacae = test: as above; format: cell-based; settings: strain VGH-84-37
[11] = test system: Staphylococcus saprophyticus; test: as above; format: cell-based; settings: strain VHG-84-50
[12] = test system: Pasteurella haemolytica 30660; test: Pasteurella disk test (primary in vitro disk diffusion test); format: cell-based; settings: disks soaked in 2.5 mg/ml solution; strain 30660
[13] = single subcutaneous dose 4 mg/kg
[14] = single subcutaneous dose 16 mg/kg
[15] = single subcutaneous dose 64 mg/kg

C/C=C\C=C\[C@@H]1O[C@](O)([C@H](CO[C@H]2C[C@@H](OC)[C@@H](O[C@@H]3C[C@@H](OC)[C@@H](O[C@H]4C[C@H](OC)[C@H](O)[C@H](C)O4)[C@H](C)O3)[C@@H](C)O2)C(=O)NC/C=C/C=C(\C)[C@@H](OC)[C@H](C)[C@H]2C[C@H](O)[C@H](/C=C/C=C/C=C/C(=O)O)O2)[C@H](OC(=O)Cc2ccccc2)[C@H](O)C1(C)C [LL-E19020 alpha]
MIC [1]: 0.125 µg/mL (≈ 0.102 µM)
MIC (Treponema hyodysenteriae; strain B78 (ATCC 27164)): 1 µg/mL (≈ 0.815 µM)
MIC (Treponema hyodysenteriae; strain B204 (ATCC 31212)): 1 µg/mL (≈ 0.815 µM)
Minimal Inhibitory Concentration (Clostridium difficile): 4 µg/mL
MIC (Pasteurella haemolytica): 16 µg/mL (≈ 13 µM)
MIC (Pasteurella multocida): 8 to 16 µg/mL
Minimal Inhibitory Concentration (Pseudomonas aeruginosa): >256 µg/mL
Minimal Inhibitory Concentration (Morganella morganii): >256 µg/mL
MIC (Staphylococcus aureus [2]): ≧ 256 µg/ml
Minimal Inhibitory Concentration (Bacteroides fragilis): >128 µg/mL
MIC (Streptococcus agalactiae): 2 to 8 µg/mL
Minimal Inhibitory Concentration (Streptococcus pneumoniae; strain K-84-21): 1 µg/mL
Minimal Inhibitory Concentration (Streptococcus pneumoniae; strain SVI): 1 µg/mL
Minimal Inhibitory Concentration (Streptococcus pneumoniae; strain VGH-84-56): 1 µg/mL
Minimal Inhibitory Concentration (Streptococcus pneumoniae; strain VGH-84-57): 2 µg/mL
Minimal Inhibitory Concentration (Streptococcus pneumoniae; strain VGH-84-58): 0.25 µg/mL
Minimal Inhibitory Concentration (Streptococcus pneumoniae; strain VGH-84-59): 0.25 µg/mL
Minimal Inhibitory Concentration ([3]; strain C203): 0.5 µg/mL
Minimal Inhibitory Concentration ([3]; strain VGH-84-60): 0.25 µg/mL
Minimal Inhibitory Concentration ([3]; strain VGH-84-61): 1 µg/mL
Minimal Inhibitory Concentration ([3]; strain VGH-84-62): 1 µg/mL
Minimal Inhibitory Concentration ([3]; strain VGH-84-63): 0.12 µg/mL
Minimal Inhibitory Concentration ([3]; strain VGH-84-64): 0.12 µg/mL
MIC (Salmonella choleraesuis): > 256 µg/mL
MIC (Streptococcus uberis): 8 µg/mL (≈ 6.52 µM)
Minimal Inhibitory Concentration (Serratia marcescens): >256 µg/mL
Wg Gains And Feed Efficiency % Improvement Over Controls COMBINED ([4]; 12.5 PPM in diet): 3.8%
Wg Gains And Feed Efficiency % Improvement Over Controls FEMALES ([4]; 12.5 PPM in diet): 7.8* %
Wg Gains And Feed Efficiency % Improvement Over Controls MALES ([4]; 12.5 PPM in diet): 0%
Wg Gains And Feed Efficiency % Improvement Over Controls FEED/GAIN ([4]; 12.5 PPM in diet): 1.36*
Wg Gains And Feed Efficiency % Improvement Over Controls COMBINED ([4]; 25 PPM in diet): 5.5%
Wg Gains And Feed Efficiency % Improvement Over Controls FEMALES ([4]; 25 PPM in diet): 4.8%
Wg Gains And Feed Efficiency % Improvement Over Controls MALES ([4]; 25 PPM in diet): 5.9%
Wg Gains And Feed Efficiency % Improvement Over Controls FEED/GAIN ([4]; 25 PPM in diet): 1.34**
Wg Gains And Feed Efficiency % Improvement Over Controls COMBINED ([4]; 50 PPM in diet): 6.6* %
Wg Gains And Feed Efficiency % Improvement Over Controls FEMALES ([4]; 50 PPM in diet): 10.5** %
Wg Gains And Feed Efficiency % Improvement Over Controls MALES ([4]; 50 PPM in diet): 3.6%
Wg Gains And Feed Efficiency % Improvement Over Controls FEED/GAIN ([4]; 50 PPM in diet): 1.34**
Wg Gains And Feed Efficiency % Improvement Over Controls COMBINED ([4]; 100 PPM in diet): 2.9%
Wg Gains And Feed Efficiency % Improvement Over Controls FEMALES ([4]; 100 PPM in diet): 3.2%
Wg Gains And Feed Efficiency % Improvement Over Controls MALES ([4]; 100 PPM in diet): 2.9%
Wg Gains And Feed Efficiency % Improvement Over Controls FEED/GAIN ([4]; 100 PPM in diet): 1.34**
Wg Gains And Feed Efficiency % Improvement Over Controls COMBINED ([4]; 200 PPM in diet): 5.7%
Wg Gains And Feed Efficiency % Improvement Over Controls FEMALES ([4]; 200 PPM in diet): 7.1%
Wg Gains And Feed Efficiency % Improvement Over Controls MALES ([4]; 200 PPM in diet): 4.5%
Wg Gains And Feed Efficiency % Improvement Over Controls FEED/GAIN ([4]; 200 PPM in diet): 1.32**
MIC [5]: > 256 µg/mL
Minimal Inhibitory Concentration (Escherichia coli [6]): >256 µg/mL
Survival Ratios 7 Days After Infection [7, 13]: 2/5
Survival Ratios 7 Days After Infection ([7]; single subcutaneous dose 8 mg/kg): 4/5
Survival Ratios 7 Days After Infection [7, 14]: 5/5
Survival Ratios 7 Days After Infection ([7]; single subcutaneous dose 32 mg/kg): 5/5
Survival Ratios 7 Days After Infection [7, 15]: 5/5
MIC (Streptococcus pyogenes): 2 µg/mL (≈ 1.63 µM)
Survival Ratios 7 Days After Infection [8, 13]: 2/5
Survival Ratios 7 Days After Infection [8, 14]: 3/5
Survival Ratios 7 Days After Infection [8, 15]: 3/5
Survival Ratios 7 Days After Infection ([8]; single subcutaneous dose 256 mg/kg): 3/5
MIC (Escherichia coli [9]): ≧ 256 µg/ml
Minimal Inhibitory Concentration (Clostridium perfringens): 16 µg/mL
Minimal Inhibitory Concentration (Staphylococcus aureus [10]; strain ATCC 25923): > 256 µg/mL
Minimal Inhibitory Concentration (Staphylococcus aureus [10]; strain CMC-83-127): > 256 µg/mL
Minimal Inhibitory Concentration (Staphylococcus aureus [10]; strain CMC-83-131): > 256 µg/mL
Minimal Inhibitory Concentration (Staphylococcus aureus [10]; strain CMC-83-132): > 256 µg/mL
Minimal Inhibitory Concentration (Staphylococcus aureus [10]; strain SSC-82-57): > 256 µg/mL
Minimal Inhibitory Concentration (Staphylococcus aureus [10]; strain Smith): 128 µg/mL
Minimal Inhibitory Concentration (Staphylococcus aureus [10]; strain VGH-84-45): > 256 µg/mL
50% inhibitory concentration (Babesia bovis): 0.625 µg/mL
Minimal Inhibitory Concentration (Peptococcus magnus; strain ATCC 14956): 0.12 µg/mL
Minimal Inhibitory Concentration (Peptococcus magnus; strain ATCC 29328): 0.12 µg/mL
Minimal Inhibitory Concentration (Enterobacter cloacae): >256 µg/mL
Minimal Inhibitory Concentration [11]: > 256 µg/mL
ZONE SIZE [12]: 13 mm

Source: patent EP0252380B1, “Antibiotic LL-E19020 alpha and beta” (AMERICAN CYANAMID COMPANY, priority 1986, dated 1988)
